From PubChem BioAssay AID1918999 (Molecular Pharmacology Branch, DTP, NCI, 2023)

Tested on: 556581-035-R-J1-PDC complex spheroid growth
Test: Anticancer human tumor 556581-035-R-J1-PDC patient-derived ovarian carcinoma cell line growth inhibition [AhR]
Details: for IC50: curve of first compound; for viability, T/C: stronger effect = lower value; active means viability on the fitted dose curve at most 10% of control; inactive means the rest
How it was run: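 Spheroids combined tumor cells with HUVEC endothelial cells and human MSCs as stroma. AhR antagonists were paired with standard or investigational drugs, each dosed in half-log steps down from near clinical Cmax, or from 10 microM where Cmax was unknown.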

[1] = second compound 0.1 µM, first compound 0.0316 µM
[2] = second compound 0.1 µM, first compound 0.1 µM
[3] = second compound 0.1 µM, first compound 0.316 µM
[4] = second compound 0.1 µM, first compound 1 µM
[5] = second compound 0.1 µM, first compound 3.16 µM
[6] = second compound 0.1 µM, first compound 10 µM
[7] = second compound 0.316 µM, first compound 0.0316 µM
[8] = second compound 0.316 µM, first compound 0.1 µM
[9] = second compound 0.316 µM, first compound 0.316 µM
[10] = second compound 0.316 µM, first compound 1 µM
[11] = second compound 0.316 µM, first compound 3.16 µM
[12] = second compound 0.316 µM, first compound 10 µM
[13] = second compound 1 µM, first compound 0.0316 µM
[14] = second compound 1 µM, first compound 0.1 µM
[15] = second compound 1 µM, first compound 0.316 µM
[16] = second compound 1 µM, first compound 1 µM
[17] = second compound 1 µM, first compound 3.16 µM
[18] = second compound 1 µM, first compound 10 µM
[19] = second compound 3.16 µM, first compound 0.0316 µM
[20] = second compound 3.16 µM, first compound 0.1 µM
[21] = second compound 3.16 µM, first compound 0.316 µM
[22] = second compound 3.16 µM, first compound 1 µM
[23] = second compound 3.16 µM, first compound 3.16 µM
[24] = second compound 3.16 µM, first compound 10 µM
[25] = second compound 10 µM, first compound 0.0316 µM
[26] = second compound 10 µM, first compound 0.1 µM
[27] = second compound 10 µM, first compound 0.316 µM
[28] = second compound 10 µM, first compound 1 µM
[29] = second compound 10 µM, first compound 3.16 µM
[30] = second compound 10 µM, first compound 10 µM
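Wherever viability, T/C is given: compound exposure lasted 7 days; 100% = DMSO vehicle control growth.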

CC1(C)CCC(CN2CCN(c3ccc(C(=O)NS(=O)(=O)c4ccc(NCC5CCOCC5)c([N+](=O)[O-])c4)c(Oc4cnc5[nH]ccc5c4)c3)CC2)=C(c2ccc(Cl)cc2)C1 + CC(CO)NC(=O)c1cc(-c2ccc(Cl)cc2)nn(-c2cnn(C)c2)c1=O
inactive: viability, T/C [1] 99.2% | viability, T/C [2] 111% | viability, T/C [3] 114% | viability, T/C [4] 90.7% | viability, T/C [5] 96.5% | viability, T/C [6] 90.1% | viability, T/C [7] 99.3% | viability, T/C [8] 116% | viability, T/C [9] 102% | viability, T/C [10] 97.2% | viability, T/C [11] 98.6% | viability, T/C [12] 82.8% | viability, T/C [13] 117% | viability, T/C [14] 117% | viability, T/C [15] 105% | viability, T/C [16] 106% | viability, T/C [17] 103% | viability, T/C [18] 79.5% | viability, T/C [19] 104% | viability, T/C [20] 106% | viability, T/C [21] 105% | viability, T/C [22] 122% | viability, T/C [23] 94% | viability, T/C [24] 73% | viability, T/C [25] 109% | viability, T/C [26] 115% | viability, T/C [27] 115% | viability, T/C [28] 122% | viability, T/C [29] 99% | viability, T/C [30] 85.7%
> 10 µM: IC50 (second compound 0.1 µM) | IC50 (second compound 0.316 µM) | IC50 (second compound 1 µM) | IC50 (second compound 3.16 µM) | IC50 (second compound 10 µM)

Cn1ncnc1C1c2n[nH]c(=O)c3cc(F)cc(c23)NC1c1ccc(F)cc1 (stereo not given) + CC(CO)NC(=O)c1cc(-c2ccc(Cl)cc2)nn(-c2cnn(C)c2)c1=O
inactive: viability, T/C (second compound 0.1 µM, first compound 0.000316 µM) 109% | viability, T/C (second compound 0.1 µM, first compound 0.001 µM) 104% | viability, T/C (second compound 0.1 µM, first compound 0.00316 µM) 101% | viability, T/C (second compound 0.1 µM, first compound 0.01 µM) 103% | viability, T/C [1] 97.3% | viability, T/C [2] 99.7% | viability, T/C (second compound 0.316 µM, first compound 0.000316 µM) 97% | viability, T/C (second compound 0.316 µM, first compound 0.001 µM) 111% | viability, T/C (second compound 0.316 µM, first compound 0.00316 µM) 137% | viability, T/C (second compound 0.316 µM, first compound 0.01 µM) 113% | viability, T/C [7] 99.3% | viability, T/C [8] 93.4% | viability, T/C (second compound 1 µM, first compound 0.000316 µM) 112% | viability, T/C (second compound 1 µM, first compound 0.001 µM) 105% | viability, T/C (second compound 1 µM, first compound 0.00316 µM) 113% | viability, T/C (second compound 1 µM, first compound 0.01 µM) 105% | viability, T/C [13] 98.7% | viability, T/C [14] 99.6% | viability, T/C (second compound 3.16 µM, first compound 0.000316 µM) 114% | viability, T/C (second compound 3.16 µM, first compound 0.001 µM) 110% | viability, T/C (second compound 3.16 µM, first compound 0.00316 µM) 105% | viability, T/C (second compound 3.16 µM, first compound 0.01 µM) 93.3% | viability, T/C [19] 101% | viability, T/C [20] 89.6% | viability, T/C (second compound 10 µM, first compound 0.000316 µM) 105% | viability, T/C (second compound 10 µM, first compound 0.001 µM) 110% | viability, T/C (second compound 10 µM, first compound 0.00316 µM) 110% | viability, T/C (second compound 10 µM, first compound 0.01 µM) 112% | viability, T/C [25] 92.6% | viability, T/C [26] 97.2%
> 0.1 µM: IC50 (second compound 0.1 µM) | IC50 (second compound 0.316 µM) | IC50 (second compound 1 µM) | IC50 (second compound 3.16 µM) | IC50 (second compound 10 µM)

NS(=O)(=O)OCC1CC(n2ccc3c(NC4CCc5ccccc54)ncnc32)CC1O (stereo not given) + CC(CO)NC(=O)c1cc(-c2ccc(Cl)cc2)nn(-c2cnn(C)c2)c1=O
inactive: viability, T/C [1] 98.2% | viability, T/C [2] 108% | viability, T/C [3] 112% | viability, T/C [4] 107% | viability, T/C [5] 107% | viability, T/C [6] 86.9% | viability, T/C [7] 107% | viability, T/C [8] 121% | viability, T/C [9] 97.1% | viability, T/C [10] 104% | viability, T/C [11] 109% | viability, T/C [12] 78.9% | viability, T/C [13] 106% | viability, T/C [14] 118% | viability, T/C [15] 104% | viability, T/C [16] 111% | viability, T/C [17] 88.3% | viability, T/C [18] 86.7% | viability, T/C [19] 101% | viability, T/C [20] 111% | viability, T/C [21] 103% | viability, T/C [22] 106% | viability, T/C [23] 99.8% | viability, T/C [24] 89.5% | viability, T/C [25] 95.8% | viability, T/C [26] 109% | viability, T/C [27] 115% | viability, T/C [28] 109% | viability, T/C [29] 121% | viability, T/C [30] 96.7%
> 10 µM: IC50 (second compound 0.1 µM) | IC50 (second compound 0.316 µM) | IC50 (second compound 1 µM) | IC50 (second compound 3.16 µM) | IC50 (second compound 10 µM)
